Assay results from ChEMBL document CHEMBL1201862, “PubChem BioAssay data set” (2004).
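In this assay, cells in 96-well plates receive the compound at five concentrations for 48 hours. Endpoints are linearly interpolated between the surrounding concentrations. GI50 = concentration required for 50% inhibition of growth.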 Calls of active or inactive are those of the source. Cut-off read from the data, not from the text of the source: active = GI50 up to about 1.1 µM and inactive = higher.

Tests used:
Experiment in all cases: NCI-60 cell line screen, 48 h
[1] = system: OVCAR-4
[2] = system: NCI-H226
[3] = system: M14
[4] = system: OVCAR-8
[5] = system: SN12C
[6] = system: TK-10
[7] = system: MCF7
[8] = system: A549
[9] = system: SNB-75
[10] = system: LXFL 529
[11] = system: BT-549
[12] = system: HOP-92
[13] = system: SNB-19
[14] = system: NCI-H460
[15] = system: SF-268
[16] = system: EKVX
[17] = system: Malme-3M
[18] = system: HCT-116
[19] = system: T47D
[20] = system: MDA-N

| Structure (SMILES) | GI50 [1] | GI50 [2] | GI50 [3] | GI50 [4] | GI50 [5] | GI50 [6] | GI50 [7] | GI50 [8] | GI50 [9] | GI50 [10] | GI50 [11] | GI50 [12] | GI50 [13] | GI50 [14] | GI50 [15] | GI50 [16] | GI50 [17] | GI50 [18] | GI50 [19] | GI50 [20] |
| --- | --- | --- | --- | --- | --- | --- | --- | --- | --- | --- | --- | --- | --- | --- | --- | --- | --- | --- | --- | --- |
| COc1ccc2nccc(NCCCN3CCN(CCCNc4ccnc5ccc(OC)cc45)CC3)c2c1 | 1040 nM (active) | 255 nM (active) | 1080 nM (active) | 612 nM (active) | 177 nM (active) | 5310 nM (inactive) | 40.3 nM (active) | 296 nM (active) | 543 nM (active) | 179 nM (active) | 4270 nM (inactive) | 226 nM (active) | 927 nM (active) | 296 nM (active) | 432 nM (active) | 1340 nM (inactive) | 644 nM (active) | 221 nM (active) | 887 nM (active) | 88.1 nM (active) |
| COc1ccc(/C=C/c2cc(OC)cc(OC)c2)cc1 [TRISMETHOXYRESVERATROL] | 18900 nM (inactive) | 5430 nM (inactive) | 6530 nM (inactive) | 22100 nM (inactive) | 9950 nM (inactive) | 12600 nM (inactive) | – | 6320 nM (inactive) | 4820 nM (inactive) | 4860 nM (inactive) | – | 8070 nM (inactive) | 20700 nM (inactive) | 3730 nM (inactive) | 7930 nM (inactive) | > 22400 nM (inactive) | 6120 nM (inactive) | 4170 nM (inactive) | – | – |
